#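 These data come from cells grown in 96-well plates and exposed to compound for 48 hours at five concentrations. GI50 = concentration required for 50% inhibition of growth. TGI denotes the concentration required for complete inhibition of growth.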
# Experiments:
# Assay in all cases: NCI-60 cell line screen, 48 h
# [1] = system: RXF 393 renal
# [2] = system: KM12 colon
# [3] = system: SK-MEL-2 melanoma
# [4] = system: UO-31 renal
# [5] = system: OVCAR-5 ovarian
# [6] = system: SNB-75 CNS
# [7] = system: NCI-H226 lung
# [8] = system: OVCAR-3 ovarian
# [9] = system: U251 CNS
# [10] = system: HCC-2998 colon
Structure (SMILES),TGI [1] [µM],TGI [2] [µM],TGI [3] [µM],TGI [4] [µM],TGI [5] [µM],TGI [6] [µM],TGI [7] [µM],TGI [8] [µM],TGI [9] [µM],TGI [10] [µM],GI50 [1] [µM],GI50 [2] [µM],GI50 [10] [µM],GI50 [4] [µM],GI50 [5] [µM],GI50 [6] [µM],GI50 [7] [µM],GI50 [8] [µM],GI50 [9] [µM],GI50 [3] [µM]
FC1OC2OC1C(OCc1ccccc1)C(OCc1ccccc1)C2OCc1ccccc1 (stereo not given),> 100,> 100,> 100,> 100,> 100,> 100,> 100,> 100,> 100,,,,,,,,,,,
CC(=O)C1C(=O)N(C(C)C)C[C@@H]2CCC(=O)C[C@H]12 (stereo not given in full),> 100,> 100,> 100,> 100,,> 100,,> 100,> 100,> 100,,,,,,,,,,
Cc1ccc(C(C)C)cc1NC(=O)Nc1ccc([N+](=O)[O-])cc1,13.5,5.91,,5.79,8.99,10.5,6.14,6.28,6.46,5.44,2.81,2.25,2.09,1.54,2.92,2.52,1.77,1.77,2.25,
CCOP(=O)(Nc1ccc2oc(=O)c3ccccc3c2c1)OCC,> 100,,> 100,,> 100,> 100,> 100,> 100,> 100,> 100,,,,,,,,,,
COc1cc2cc3c4c(cc(OC)c(OC)c4c2cc1OC)CCN3C(=O)CCC(=O)NCCCN(C)C,> 100,> 100,41.9,> 100,,53.2,> 100,> 100,> 100,> 100,,,,,,,,,,
Cc1nc(N)nc2ccccc12,> 100,> 100,> 100,> 100,> 100,> 100,,> 100,> 100,> 100,,,> 100,,,,,,,
N[C@@H]1CCCC[C@@H]1N.O=P([O-])([O-])CN(CP(=O)([O-])[O-])CP(=O)([O-])[O-].[Pt+2],,> 100,> 100,> 100,,> 100,> 100,> 100,> 100,> 100,,> 100,> 100,> 100,,> 100,> 100,> 100,> 100,> 100
COc1nc(NC2OC(COC(C)=O)C(OC(C)=O)C(OC(C)=O)C2OC(C)=O)c(-c2csc(N)n2)c(=O)n1C (stereo not given),,> 100,90.2,> 100,> 100,51.8,> 100,> 100,> 100,,,,,,,,,,,
O=C(Cc1csc2nc(-c3ccc(Br)cc3)cn12)N/N=C/c1ccc(O)cc1,,76.7,95.9,> 100,> 100,> 100,,49.4,> 100,29.4,,17.6,14.6,26.3,27.6,> 100,,24.2,21.3,26.1
CC1CC[C@]2(C(=O)O)CCC3(C)C(=CCC4[C@@]5(C)CC[C@H](OS(=O)(=O)c6ccccc6)C(C)(C)C5CC[C@]43C)[C@@H]2[C@H]1C (stereo not given in full),,> 100,> 100,> 100,> 100,> 100,> 100,> 100,> 100,> 100,,,,,,,,,,
CC(=O)Oc1ccc2c(c1)CC[C@@H]1C2CC[C@]2(C)C(=O)NC(=O)CC12 (stereo not given in full),> 100,> 100,,> 100,> 100,> 100,> 100,> 100,> 100,> 100,,,,,,,,,,
O=C1c2ccccc2C(=O)c2nc3ccc(Cl)cc3cc21,,> 100,> 100,> 100,> 100,> 100,> 100,> 100,> 100,> 100,,,,,,,,,,
C/C=C1\C(=O)OC2CCN3CCC(COC(=O)C(C)(O)C(C)C1O)C23 (stereo not given),,> 100,> 100,> 100,> 100,> 100,> 100,,> 100,> 100,,,,,,,,,,
C[C@]12CC[C@H](OC3CCCCO3)CC1=CC[C@@H]1C2CC[C@]2(C)/C(=N/O)CCC12 (stereo not given in full),44.8,32.4,89.7,> 100,75.6,41.9,,31.1,40.4,37.8,,,,,,,,,,
CCCCCCCCCCCCOP(N)(=O)OCCCCCCCCCCCC,> 100,,,> 100,,> 100,,> 100,> 100,> 100,,,,,,,,,,
C[C@@H]1C[C@]2(C[C@@H](C)C3[C@@H](CC4(C)[C@@H]5CCC6C(C)(C)OC(=O)C=C[C@]67C[C@@]5(CC[C@]34C)OO7)O2)OC1=O (stereo not given in full),> 100,,> 100,> 100,> 100,56.9,> 100,66.3,> 100,> 100,,,,,,,,,,
CC1=NN(C(=O)c2ccccc2O)C(=O)/C1=C/c1cccc([N+](=O)[O-])c1,,> 100,> 21.9,,> 100,> 100,> 100,> 47.5,> 100,> 100,,,,,,,,,,
C#CCN(Cc1ccc2nc(N)[nH]c(=O)c2c1)c1ccc(C(=O)NC(CCC(=O)O)C(=O)O)cc1 (stereo not given),,> 100,,> 100,> 100,,> 100,> 100,> 100,> 100,,,,,,,,,,
N#CC1C=Cc2ccccc2N1C(=O)Oc1ccccc1 (stereo not given),> 100,> 100,64.3,> 100,> 100,> 100,> 100,,> 100,> 100,,,,,,,,,,
C/C(CC(=O)N(C(C)C)C(C)C)=N\NC(=O)c1ccncc1,> 100,,,> 100,,> 100,> 100,> 100,> 100,> 100,,,,,,,,,,
CC1(C)CC[C@]2(C(N)=O)CC[C@]3(C)C(=CC[C@@H]4[C@@]5(C)C/C(=C/c6ccncc6)C(=O)C(C)(C)[C@@H]5CC[C@]43C)[C@@H]2C1,3.05,3.41,3.97,2.91,3.16,8.22,,3.45,3.27,3.45,1.59,1.79,1.87,1.48,1.61,2.48,,1.87,1.69,1.92
